Assay results: patent US7566737B2 (Genfit, priority 2002, dated 2009)

Legend:
[1] = test system: C57BLKS-m Lepr^db transgenic mice; test: Antidiabetic effect on insulin and glucose; assay type: in vivo, mouse; conditions: 0.1 to 100 mg/Kg/day for 28 days
Procedure: Genetically modified C57BLKS-m Lepr^db mice were used to asses antidiabetic effect of the inventive compounds. Mice were randomized according to their plasma lipid, glucose and insulin contents. Treatments were administered once daily by gavage (10 ml/kg) for the duration of the treatment. For oral administrations, the drugs were suspended in CMC 1% or CMC 1%+Tween 80 0.1%. The plasma glucose was measured using a kit reagent from Biomerieux (France). The plasma insulin was measured using a solid phase two-site enzyme immunoassay from Crystal Chem Inc. (USA). The results are exemplified in FIGS. 5-1 to 5-4 which illustrate the activity of inventive compounds 29 and 62 on glucose and insulin.

human PPARγ = target: T1, human PPARγ (Homo sapiens, UniProt P37231); test: PPARγ/Gal4 transactivation system; assay type: cell-based; conditions: 10 μM
T1 construct: expressed in transfected cells; host or cells: RK13 or COS-7
T1 sequence (P37231 238-503 limits assumed): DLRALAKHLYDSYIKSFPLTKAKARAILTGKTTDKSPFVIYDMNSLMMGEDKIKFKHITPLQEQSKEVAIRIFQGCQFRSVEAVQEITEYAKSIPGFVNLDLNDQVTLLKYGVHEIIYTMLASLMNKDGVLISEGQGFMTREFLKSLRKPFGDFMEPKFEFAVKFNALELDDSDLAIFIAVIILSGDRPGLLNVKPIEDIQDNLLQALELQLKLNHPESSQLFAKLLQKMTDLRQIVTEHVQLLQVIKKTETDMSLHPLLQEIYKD
Procedure: PPAR activation was tested in vitro in RK13 or COS-7 fibroblast cell lines by measuring the transcriptional activity of chimeras composed of the DNA binding domain of the yeast Gal4 transcription factor and the ligand binding domain of the different PPARs. These latter results were then confirmed in cell lines according to the following protocols.
Culture protocols: RK13 were from ECACC (Porton Down, UK) and were grown in DMEM medium supplemented with 10% (V/V) fetal calf serum, 100 U/ml penicillin (Gibco, Paisley, UK) and 2 mM L-glutamine (Gibco, Paisley, UK). COS-7 cells were from ATCC and were grown in DMEM medium supplemented with 10% (V/V) fetal calf serum, 1% penicillin/streptomycine (Biochrom, AG), 1% of amino acids (Gibco) and 1% sodium pyruvate (Gibco).
The culture medium was changed every two days. Cells were kept at 37° C. in a humidified 95% air/5% CO2 atmosphere.
Description of plasmids used for transfection: The plasmids Gal4(RE)_TkpGL3, pGal4-hPPARα, pGal4-hPPARγ, pGal4-hPPARδ and pGal4-φ have been described in the literature (Raspe E et al., 1999). The pGal4-hPPARα, pGal4-hPPARγ and pGal4-hPPARδ constructs were obtained by cloning into the pGal4-φ vector PCR-amplified DNA fragments corresponding to the DEF domains of the human PPARs nuclear receptors.
Transfection of RK13: RK13 cells were seeded in 24-well culture dishes at 5×10^4 cells/well and transfected for 2 hours with the reporter plasmid Gal4(RE)_TkpGL3 (50 ng/well), the expression vectors pGal4-φ, pGal4-hPPARα, pGal4-hPPARγ and pGal-hPPARδ (100 ng/well) and the transfection efficiency control vector pRL-CMV (1 ng/well) according to the previously described protocol (Raspe E, Madsen L, Lefebvre A M, Leitersdorf I, Gelman L, Peinado-Onsurbe J, Dallongeville J, Fruchart J C, Berge R and Staels B, 1999), then incubated for 36 hours with the test compounds. RK13 cells were incubated with the different compounds at concentrations of 10, 30 and 100 μM or 1, 10 and 100 μM for 24 hours. At the end of the experiment, the cells were lysed (Gibco, Paisley, UK) and luciferase activity was determined with a Dual-Luciferase™ Reporter Assay System kit (Promega, Madison, Wis., USA) according to the supplier's instructions. The protein content of the cell extracts was then measured with the Bio-Rad Protein Assay (Bio-Rad, Munich, Germany) as directed by the supplier.
Transfection of COS7: Cells in suspension are transfected, in the presence of 10% (V/V) fetal calf serum, with 150 ng of DNA per well with a pGal4-PPAR/Gal4(RE)_TkpGL3 ratio of 1/10. Cells are then seeded in 96 well plates (4×10^4 cells/well) and incubated for 24 hours at 37° C. Activation with compounds is performed on 24 hours at 37° C. in culture medium without serum. At the end of the activation period, cells are lysed and luciferase activity is determined, using the Steady Glow Luciferase Kit (Promega), according to the supplier's instructions.

[2] = test system: Human THP-1 monocytes differentiated in macrophages; test: Anti-inflammatory properties: cytokine secretion by LPS-stimulated macrophages; assay type: cell-based; conditions: pre-treated 24 hours, LPS 6 hours, vs non-treated cells
Procedure: TNF-α (tumor necrosis factor alpha) and IL-6 (interleukin-6) are two important markers of the inflammatory response to stress. The anti-inflammatory property of the compound 29 was evaluated as follows:
Human THP-1 monocytes were differentiated in macrophages by a 72 h incubation with 30 ng/ml of PMA (Phorbol Myristate Acetate). Differentiated macrophages were then treated with the inventive compound 29 at different concentrations during 24 h in culture medium without serum. Stimulation with LPS 1 μg/ml was finally performed during 6 hours (LPS bacterial endotoxin (Escherichia coli 0111 :B4) (Sigma, France) was reconstituted in distilled water).
TNF-α and IL-6 secretion were quantified in the culture medium of LPS-stimulated cells with TNF-α and IL6 ELISA kits (Immunotech, France).

- maximum induction factor (human PPARγ): 33.9
Compound: CSc1ccc(C(=O)/C=C/c2cc(C)c(OC(C)(C)C(=O)O)c(C)c2)cc1 [Compound 29, 1-[4-methylthiophenyl]-3-[3,5-dimethyl-4-carboxydimethylmethyloxyphenyl]prop-2-en-1-one]
- plasma glucose level [1]: decrease
- plasma insulin level [1]: decrease
- IL-6 secretion ([2]; 0.1, 1 and 10 μM): decrease
- TNF-α secretion ([2]; 1 and 10 μM): decrease
